Results reported in BindingDB's records for PubMed 9694973 (Alcon Laboratories, 1998).
Where “and” joins values, the source holds several entries; their conditions need not be identical. Equal values may be shown once.

How the values were obtained:
[1] = target: T1, Prostaglandin E2 receptor EP3 subtype (Bos taurus, UniProt P34979)
T1 sequence (P34979 whole entry): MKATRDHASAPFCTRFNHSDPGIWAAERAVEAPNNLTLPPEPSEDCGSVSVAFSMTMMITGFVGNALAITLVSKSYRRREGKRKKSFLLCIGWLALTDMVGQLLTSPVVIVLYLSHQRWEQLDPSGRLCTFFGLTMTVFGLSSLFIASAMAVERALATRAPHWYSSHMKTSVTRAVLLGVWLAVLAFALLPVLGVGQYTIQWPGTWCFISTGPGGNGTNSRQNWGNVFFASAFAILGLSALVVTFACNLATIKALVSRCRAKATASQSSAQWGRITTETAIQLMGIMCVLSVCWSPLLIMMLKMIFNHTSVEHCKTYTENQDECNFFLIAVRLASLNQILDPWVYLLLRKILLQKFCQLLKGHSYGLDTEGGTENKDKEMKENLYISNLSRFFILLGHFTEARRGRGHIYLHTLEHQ

[2] = target: Prostaglandin F2-alpha receptor (Bos taurus, UniProt P37289)
Chain of Prostaglandin F2-alpha receptor (P37289 whole entry): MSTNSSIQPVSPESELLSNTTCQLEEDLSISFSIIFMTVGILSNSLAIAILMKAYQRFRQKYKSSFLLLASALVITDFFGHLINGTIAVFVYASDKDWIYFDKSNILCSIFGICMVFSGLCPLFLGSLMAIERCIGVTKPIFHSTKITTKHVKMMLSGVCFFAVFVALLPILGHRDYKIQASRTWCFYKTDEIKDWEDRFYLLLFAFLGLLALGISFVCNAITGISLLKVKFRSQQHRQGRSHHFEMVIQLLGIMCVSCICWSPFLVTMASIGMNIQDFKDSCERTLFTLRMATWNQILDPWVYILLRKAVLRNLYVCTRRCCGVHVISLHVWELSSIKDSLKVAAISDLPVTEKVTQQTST

Ki [1]	Ki [2] [nM]	Compound
265 nM		CC#CCC(C)[C@H](O)/C=C/[C@@H]1[C@H]2C/C(=C/CCCC(=O)O)C[C@H]2C[C@H]1O (some centres not stated)
2 nM and 4 nM	> 10000	CCCCC[C@@H](O)/C=C/[C@H]1[C@H](O)CC(=O)[C@@H]1CCCCCCC(=O)O
4860 nM and 5370 nM	> 10000	CCCCC[C@H](O)/C=C/[C@@H]1[C@H]2C/C(=C\CCCC(=O)O)C[C@H]2C[C@H]1O
16 nM and 7 nM	1410	O=C(O)CCC/C=C\C[C@H]1C(=O)C[C@@H](O)[C@@H]1/C=C/[C@@H](O)CCc1ccccc1 [17-PHENYL TRINOR PROSTAGLANDIN E2]
37 nM and 24 nM		CCCCC[C@H](O)/C=C/C1[C@H](O)C[C@H](O)[C@@H]1C/C=C\CCCC(=O)O (stereo partly drawn) [(Z)-7-[(1R,3R,5S)-3,5-Dihydroxy-2-((E)-(S)-3-hydroxy-oct-1-enyl)-cyclopentyl]-hept-5-enoic acid]
> 10000 nM		CCCC1([C@@H](O)C/C=C/C2[C@H](O)CC(=O)[C@@H]2CCCCCCC(=O)OC)CCC1 (some centres not stated) [Butaprost (Methyl Ester)]
3170 nM and 3500 nM	100	O=C(O)CCCC=CCC1C(O)CC(O)C1C=CC(O)COc1cccc(C(F)(F)F)c1 (configuration not stated) [CAS_40666-16-8]
1580 nM and 1110 nM	2500	CCCCCC(O)CC=C1C(=O)C=CC1CC=CCCCC(=O)O (configuration not stated) [CAS_41598-07-6]
21 nM and 11 nM	2500	CS(=O)(=O)NC(=O)CCCC=CCC1C(=O)CC(O)C1C=CC(O)COc1ccccc1 (configuration not stated) [CAS_60325-46-4]
> 10000 nM	> 10000	O=C(O)CCCCCCc1c(O)n(Cc2ccccc2)c(=O)n1NCC(O)C1CCCCC1 (configuration not stated) [CAS_122021]
388 nM	59	CC(C)OC(=O)CCC/C=C\C[C@@H]1[C@@H](/C=C/[C@@H](O)CCc2ccccc2)[C@H](O)C[C@@H]1O [CAS_130209-76-6]
29 nM		COC(=O)CCC=CCCC1C(=O)CC(O)C1C=CCC(C)(O)C=CC1=CCCC1 (configuration not stated) [CAS_132045]
> 10000 nM	5900	CCCCCCCC(=O)CCC1C(O)CC(O)C1CC=CCCCC(=O)OC(C)C (configuration not stated) [CAS_151671]
3000 nM and > 10000 nM		CC(=O)NNC(=O)N1Cc2ccccc2Oc2ccc(Cl)cc21 [CAS_4336830]
8740 nM	> 10000	CC1CCCCC1C(O)C=CC1C(O)CC(Cl)C1CC=CCOCC(=O)O (configuration not stated) [CAS_5311208]
90 nM and 91 nM		O=C(O)CCC/C=C\C[C@@H]1[C@@H](/C=C/[C@@H](O)COc2cccc(Cl)c2)[C@H](O)C[C@@H]1O [CLOPROSTENOL]
4 nM and 3 nM	3400	CCCCC[C@H](O)/C=C/[C@H]1[C@H](O)CC(=O)[C@@H]1C/C=C\CCCC(=O)O [DINOPROSTONE]
> 10000 nM	4200	CC(C)OC(=O)CCC/C=C/C[C@@H]1[C@@H](CC[C@@H](O)CCc2ccccc2)[C@H](O)C[C@@H]1O [LATANOPROST (PHXA41)]
25 nM and 54 nM		CCCCC(C)(O)CC=CC1C(O)CC(=O)C1CCCCCCC(=O)OC (configuration not stated) [MISOPROSTOL (Methyl Ester)]
> 10000 nM and 7940 nM	98	O=C(O)CCCC=CC[C@@H]1[C@@H](CC[C@@H](O)CCc2ccccc2)[C@H](O)C[C@@H]1O [NSC_170548]
12 nM and 25 nM	1000	COC(=O)CCC=C=CCC1C(=O)CC(O)C1C=CC(O)COc1ccccc1 (configuration not stated) [NSC_5282207]
8 nM and 11 nM	> 10000	O=C(CCC=CCCC1C(=O)CC(O)C1OCC(O)COc1ccccc1)Oc1ccc(NC(=O)c2ccccc2)cc1 (configuration not stated) [NSC_5311224]
	22	O=C(O)CCC/C=C\C[C@@H]1[C@@H](/C=C/[C@@H](O)COc2ccccc2)[C@H](O)C[C@@H]1O [PGF2Alpha,16-Phenoxy]
> 10000 nM	8900	CCCCC[C@H](O)/C=C/C1[C@@H](C/C=C\CCCC(=O)O)[C@H]2CO[C@@H]1C2 (some centres not stated) [U46619]

Compound	Ki [1]	Ki [2] [nM]
O=NN1CSCSC1 [NSC_130741]	> 10000 nM	> 10000
